Earlier results as cited in patent publication US8067598B2, “Heterofused piperidines as orexin antagonists” (Hoffman-La Roche Inc., priority 2007, dated 2011).
No end group written: not given here.

System: rat
Details: icv administration (Piper et al., 2000); cited from earlier work

## OX-A: orexin-A/hypocretin1 hypothalamic neuropeptide, 33 amino acids; agonist of OX1R and OX2R (QPLPDCCRQKTCSCRLYELLHGAGNHAAGILTL; ends and bridges not checked; cysteine pairing not given here; UniProt O43612 34-66, looked up)
  reduction of total REM sleep: 84%
